Patent US20090186918A1, “Triazole Compounds as Lipoxygenase Inhibitors” (priority 2005, published 2009)

Molecular target: T1, purified human 15-lipoxygenase (Homo sapiens, UniProt P16050)
T1 sequence (P16050 1-662): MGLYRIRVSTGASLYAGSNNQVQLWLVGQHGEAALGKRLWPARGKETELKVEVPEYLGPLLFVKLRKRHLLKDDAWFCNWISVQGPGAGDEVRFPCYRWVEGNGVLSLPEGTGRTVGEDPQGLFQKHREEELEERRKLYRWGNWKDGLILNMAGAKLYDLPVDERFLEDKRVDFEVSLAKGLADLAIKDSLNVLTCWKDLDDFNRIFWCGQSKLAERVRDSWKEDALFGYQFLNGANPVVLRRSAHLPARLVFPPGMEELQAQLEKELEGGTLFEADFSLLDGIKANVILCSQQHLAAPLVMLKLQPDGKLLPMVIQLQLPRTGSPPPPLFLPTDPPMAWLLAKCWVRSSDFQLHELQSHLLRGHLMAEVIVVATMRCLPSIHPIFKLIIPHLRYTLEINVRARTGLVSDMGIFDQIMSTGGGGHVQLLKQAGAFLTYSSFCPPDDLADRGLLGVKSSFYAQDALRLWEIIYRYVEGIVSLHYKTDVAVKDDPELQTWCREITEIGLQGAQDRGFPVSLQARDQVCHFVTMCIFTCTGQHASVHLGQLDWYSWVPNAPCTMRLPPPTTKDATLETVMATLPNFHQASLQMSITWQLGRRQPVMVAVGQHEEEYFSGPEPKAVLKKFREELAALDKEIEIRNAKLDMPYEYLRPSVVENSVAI
Experiment: 15-lipoxygenase inhibition assay (arachidonic acid oxidation, 15-HPETE/15-HETE measured by reverse phase HPLC)
Assay type: biochemical
Conditions: not given
Description: The assay employed takes advantage of the ability of lipoxygenases to oxidize polyunsaturated fatty acids, containing a 1,4-cis-pentadiene configuration, to their corresponding hydroperoxy or hydroxyl derivatives. In this particular assay, the lipoxygenase was a purified human 15-lipoxygenase and the fatty acid was arachidonic acid. The assay is performed at room temperature (20-22° C.) and the following are added to each well in a 96-well microtiter plate:
a) 35 μL phosphate buffered saline (PBS) (pH 7.4); b) inhibitor (i.e. compound) or vehicle (0.5 μl DMSO); c) 10 μL of a 10× concentrated solution of 15-lipoxygenase in PBS. The plates are incubated for 5 minutes at room temperature;
d) 5 μl of 0.125 mM arachidonic acid in PBS. The plate is then incubated for 10 minutes at room temperature;
e) the enzymatic reaction is terminated by the addition of 100 μl methanol; and f) the amount of 15-hydroperoxy-eicosatetraenoic acid or 15-hydroxy-eicosatetraenoic acid is measured by reverse phase HPLC.

Structure (SMILES) | IC50
O=C(Nc1cnc2ccccc2c1)c1cn[nH]n1 [Example 1, 1,2,3-Triazole-4-carboxylic acid quinolin-3-ylamide] | 1400 nM

Same assay, conditions: purified human 15-lipoxygenase, arachidonic acid substrate, room temperature; read-out: IC50

IC50 | Structure (SMILES)
9400 nM | Cc1ccc(NC(=O)c2c[nH]nn2)cc1F [Example 91, 1,2,3-Triazole-4-carboxylic acid (3-fluoro-4-methylphenyl)amide]
530 nM | O=C(Nc1ccc(Cl)cc1F)c1c[nH]nn1 [Example 76, 1,2,3-Triazole-4-carboxylic acid 4-chloro-2-fluorophenylamide]
250 nM | O=C(Nc1ccc(Cl)cc1C(F)(F)F)c1c[nH]nn1 [Example 75, 1,2,3-Triazole-4-carboxylic acid 4-chloro-2-(trifluoromethyl)phenylamide]
3800 nM | O=C(Nc1ccc(C(F)(F)F)cc1[N+](=O)[O-])c1c[nH]nn1 [Example 73, 1,2,3-Triazole-4-carboxylic acid 2-nitro-4-(trifluoromethyl)phenylamide]
950 nM | Cc1cc(NC(=O)c2c[nH]nn2)ccc1Cl [Example 18, 1,2,3-Triazole-4-carboxylic acid (4-chloro-3-methylphenyl)amide]
1160 nM | O=C(Nc1ccc(C(F)(F)F)cc1C(F)(F)F)c1c[nH]nn1 [Example 36, 1,2,3-Triazole-4-carboxylic acid [2,4-bis(trifluoromethyl)phenyl]amide]
1800 nM | O=C(Nc1ccc(Cl)cn1)c1c[nH]nn1 [Example 7, 1,2,3-Triazole-4-carboxylic acid (5-chloropyridin-2-yl)amide]
330 nM | O=C(Nc1ccc(Cl)c(Cl)c1Cl)c1c[nH]nn1 [Example 6, 1,2,3-Triazole-4-carboxylic acid (2,3,4-trichlorophenyl)amide]
760 nM | O=C(Nc1cc(Cl)c(Cl)cc1Cl)c1c[nH]nn1 [Example 12, 1,2,3-Triazole-4-carboxylic acid (2,4,5-trichlorophenyl)amide]
1600 nM | O=C(Nc1ccc(Cl)c(Cl)c1)c1c[nH]nn1 [Example 9, 1,2,3-Triazole-4-carboxylic acid (3,4-dichlorophenyl)amide]
4100 nM | O=C(Nc1cc(Cl)cc(Cl)c1)c1c[nH]nn1 [Example 82, 1,2,3-Triazole-4-carboxylic acid (3,5-dichlorophenyl)amide]
810 nM | O=C(Nc1ccc(Br)cn1)c1c[nH]nn1 [Example 35, 1,2,3-Triazole-4-carboxylic acid (5-bromopyridin-2-yl)amide]
